Laboratory results taken from patent publication US10294230B2, “3,3-difluoropiperidine carbamate heterocyclic compounds as NR2B NMDA receptor antagonists” (Rugen Holdings (Cayman) Limited, priority 2015, dated 2019).

Key:
human NR1/NR2B = human NR1/NR2B (Homo sapiens (Human), UniProt Q05586+Q13224); experiment: NR2B antagonist activity, Fluo-4 calcium influx in HEK293 cells; format: cell-based
Procedure: (§1) HEK293 cell lines stably expressing cloned human NR1/NR2B and NR1/NR2A, respectively, were established according to standard previously described methods (Hansen et al., Comb. Chem High Throughput Screen. 11:304, 2008). Activation of the NR2A or NR2B subtype of NMDA receptor with glutamate as an agonist and glycine co-agonist on these cells results in calcium influx, which can be monitored with fluorescent indicator Fluo-4.
(§2) For experiments, the cells were seeded onto poly-D-lysine-coated 96-well black plates with clear bottom (Corning) at a density of ˜50,000 cells/well. After overnight culture, the growth medium was removed from the wells and the cells were incubated at 37° C. for 60 min in Hanks buffer containing 4 μM fluo-4-AM (Invitrogen) and 0.1% bovine serum albumin (BSA). After dye-loading, the cells were washed three times with Hanks buffer and incubated for 10 min at room temperature with various concentrations of test compounds prepared in Hanks buffer with 0.1% BSA. The cell plates were placed onto FDSS pCell fluorescence reader (Hamamatsu). After 20 sec reading of background fluorescence, agonist glutamate at final 100 μM and co-agonist glycine at final 50 μM were added to the cells to activate the receptor, and the resulting fluorescence changes were recorded and quantified. Based on the changes in fluorescence intensity, the pharmacological effect of test compounds were analyzed and the IC50 values derived from a non-linear least squares fitting of the concentration-dependent response to a standard logistic equation using Prism (Graphpad, Inc): Amplitude=Max Amplitude/(1+(IC50/[antagonist])^n).

NR2B receptor = NR2B receptor (Rattus norvegicus (Rat), UniProt P35439+Q00960); experiment: [3H] (E)-N1-(2-methoxybenzyl)-cinnamidine radioligand binding, rat brain membranes; settings: for displacement of [3H] (E)-N1-(2-methoxybenzyl)-cinnamidine at the NR2B receptor high affinity site: rat brain membranes; for Ki: read-out: Ki at the NR2B receptor high affinity site
NR2B receptor, sequence (Q00960 27-1482, other chains not shown): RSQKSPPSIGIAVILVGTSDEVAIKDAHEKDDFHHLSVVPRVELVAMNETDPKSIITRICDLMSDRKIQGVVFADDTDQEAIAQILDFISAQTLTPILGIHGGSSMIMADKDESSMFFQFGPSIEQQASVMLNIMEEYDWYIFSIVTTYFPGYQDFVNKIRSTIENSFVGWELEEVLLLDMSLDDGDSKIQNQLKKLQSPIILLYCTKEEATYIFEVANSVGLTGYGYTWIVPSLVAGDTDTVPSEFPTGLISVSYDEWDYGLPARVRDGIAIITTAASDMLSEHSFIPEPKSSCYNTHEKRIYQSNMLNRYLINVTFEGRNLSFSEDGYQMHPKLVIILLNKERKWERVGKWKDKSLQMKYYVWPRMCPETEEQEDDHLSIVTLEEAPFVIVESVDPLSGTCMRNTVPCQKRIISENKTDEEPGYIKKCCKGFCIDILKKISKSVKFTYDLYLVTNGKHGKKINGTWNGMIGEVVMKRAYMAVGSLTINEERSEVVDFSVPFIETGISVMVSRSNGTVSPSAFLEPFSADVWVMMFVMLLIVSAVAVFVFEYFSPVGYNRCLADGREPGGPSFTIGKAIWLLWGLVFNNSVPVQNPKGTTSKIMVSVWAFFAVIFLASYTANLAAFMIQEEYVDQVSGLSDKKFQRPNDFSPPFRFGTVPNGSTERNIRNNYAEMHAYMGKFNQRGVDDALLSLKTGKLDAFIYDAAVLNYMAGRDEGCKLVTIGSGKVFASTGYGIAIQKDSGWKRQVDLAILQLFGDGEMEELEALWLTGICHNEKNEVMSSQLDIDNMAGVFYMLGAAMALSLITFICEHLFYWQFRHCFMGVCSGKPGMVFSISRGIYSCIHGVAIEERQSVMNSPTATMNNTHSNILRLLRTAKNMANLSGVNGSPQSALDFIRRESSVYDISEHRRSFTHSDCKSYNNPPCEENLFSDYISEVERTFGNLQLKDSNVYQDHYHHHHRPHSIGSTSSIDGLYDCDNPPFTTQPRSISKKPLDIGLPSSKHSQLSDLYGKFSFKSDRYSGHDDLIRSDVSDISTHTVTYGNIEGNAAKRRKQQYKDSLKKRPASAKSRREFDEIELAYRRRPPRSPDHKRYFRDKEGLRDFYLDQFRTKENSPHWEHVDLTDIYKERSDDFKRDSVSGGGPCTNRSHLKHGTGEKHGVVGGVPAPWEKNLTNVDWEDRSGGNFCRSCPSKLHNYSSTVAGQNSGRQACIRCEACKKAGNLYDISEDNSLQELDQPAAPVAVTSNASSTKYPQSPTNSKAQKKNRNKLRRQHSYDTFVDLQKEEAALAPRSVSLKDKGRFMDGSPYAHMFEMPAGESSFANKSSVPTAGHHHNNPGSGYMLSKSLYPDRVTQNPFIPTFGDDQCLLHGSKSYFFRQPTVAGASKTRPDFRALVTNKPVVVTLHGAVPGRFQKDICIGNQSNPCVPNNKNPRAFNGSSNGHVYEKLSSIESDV
Procedure: (§3) This example describes NMDA receptor binding assays using two different radioligands, [^3H] […] An established binding assay using the non-selective NMDA receptor ligand [^3H] […] The binding assay method using the NR2B selective receptor ligand [^3H] […] This assay serves as a selective measure of NR2B receptor binding activity in native rat brain receptors. Briefly, the brains of Male Wistar rats were homogenized (Polytron) before centrifugation at 40,000×g for 15 minutes at 4° C. After 2 washes, the final pellet was homogenized and stored at −80° C. The protein concentration was determined by Bradford assay.
[^3H] […] Thus, using [^3H]
(§4) Test compounds were solubilized at 10 mM in DMSO. Then the dilutions were performed with a constant solvent concentration (1% DMSO) in the assay.
(§5) After incubation for 4.5 h at room temperature, the assays were filtered on GF/B filters pretreated with 0.3% (v/v) PEI with a Brandel system for [^3H] […] The experiment was performed in duplicate (n=2).

NMDA receptor = experiment: [3H] MK-801 radioligand binding, rat brain membranes; settings: 2 nM [3H] MK-801
Procedure: as §3, §4, §5

hERG channel = hERG channel (Homo sapiens (Human), UniProt Q12809); experiment: hERG channel inhibition, whole cell patch clamp in HEK293 cells; format: cell-based; settings: 10 μM
hERG channel, sequence (Q12809 whole entry): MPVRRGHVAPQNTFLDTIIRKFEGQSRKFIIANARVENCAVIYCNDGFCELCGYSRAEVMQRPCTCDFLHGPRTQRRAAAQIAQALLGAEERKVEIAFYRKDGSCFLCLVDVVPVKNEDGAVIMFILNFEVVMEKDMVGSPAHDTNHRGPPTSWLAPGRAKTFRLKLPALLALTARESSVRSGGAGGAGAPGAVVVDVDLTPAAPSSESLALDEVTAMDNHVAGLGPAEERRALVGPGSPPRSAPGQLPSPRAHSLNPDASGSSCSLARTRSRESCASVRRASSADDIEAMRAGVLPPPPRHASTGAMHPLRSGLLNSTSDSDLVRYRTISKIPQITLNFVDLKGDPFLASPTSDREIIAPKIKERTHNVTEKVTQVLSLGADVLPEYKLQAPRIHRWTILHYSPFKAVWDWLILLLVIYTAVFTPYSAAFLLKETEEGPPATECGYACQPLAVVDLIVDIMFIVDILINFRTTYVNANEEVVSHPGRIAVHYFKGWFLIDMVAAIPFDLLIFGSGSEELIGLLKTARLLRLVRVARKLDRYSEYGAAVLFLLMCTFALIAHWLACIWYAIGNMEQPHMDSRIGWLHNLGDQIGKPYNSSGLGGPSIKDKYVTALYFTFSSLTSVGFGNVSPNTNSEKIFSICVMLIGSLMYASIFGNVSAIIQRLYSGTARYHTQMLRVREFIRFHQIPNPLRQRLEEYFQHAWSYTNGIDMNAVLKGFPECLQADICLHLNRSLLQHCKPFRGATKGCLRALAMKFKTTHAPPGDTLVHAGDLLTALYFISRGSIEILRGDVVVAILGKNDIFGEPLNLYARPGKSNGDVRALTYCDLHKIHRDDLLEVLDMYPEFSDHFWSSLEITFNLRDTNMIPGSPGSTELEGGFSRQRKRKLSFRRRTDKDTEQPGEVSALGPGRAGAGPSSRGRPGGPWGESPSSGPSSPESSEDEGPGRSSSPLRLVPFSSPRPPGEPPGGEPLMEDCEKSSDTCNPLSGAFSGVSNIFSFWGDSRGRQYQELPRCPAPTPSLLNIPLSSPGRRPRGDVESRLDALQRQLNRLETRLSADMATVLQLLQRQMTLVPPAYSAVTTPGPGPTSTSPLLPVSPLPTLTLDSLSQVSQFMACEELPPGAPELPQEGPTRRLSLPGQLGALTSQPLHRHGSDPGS
Procedure: The assay was performed on hERG channel stably expressed in HEK293 cells. The cells were cultured at 37° C. in a humidified CO2 incubator in the growth medium consisting of DMEM, 10% fetal bovine serum and antibiotics. Prior to the assay, the cells were seeded onto a 12 mm PDL-coated glass coverslip and cultured in a 35 mm Petri dish. After 16 to 40 hr culture, the cover slip was transferred into the chamber of OctaFlow perfusion system (ALA Instrument) and under a constant flow of extracellular solution (140 mM NaCl, 4 mM KCl, 1 mM MgCl2, 2 mM CaCl2, 10 mM HEPES, 10 mM D-glucose, pH 7.35, osmolarity 290). Whole cell patch clamping was performed with a glass micropipette filled with intracellular solution (120 mM KCl, 1.75 mM MgCl2, 5.4 mM CaCl2, 10 mM HEPES, 10 mM EGTA, and 4 mM ATP-K2, PH 7.2, osmolarity 310). Giga-seal was maintained during the test. The voltage control and current measurement were carried out using Axon amplifier 700B, Digidata 1440A and CLAMPEX10 software (Molecular Devices). Whole-cell hERG currents were recorded following the Petroski protocol: the cell was held at −80 mV, and the voltage step jumped from −80 to 30 mV and stay for 2 sec with a 20 ms prepulse at −40 mV. After depolarization, the voltage was decreased to −40 mV and stay for 2 sec, and returned back to −80 mV. Test compound was applied by quartz capillary tubes tip (200 μm inner diameter), and the flow rate was controlled at 2-3 ml/min with OctaFlow perfusion system. Different concentrations of the compound were applied to the cells for 5 min and the hERG current was measured three times before, during and after compound treatment. The data were analyzed using Clampfit 10 software (Molecular Devices) to generate IC50 values.

human NR1/NR2A = human NR1/NR2A (Homo sapiens (Human), UniProt Q05586+Q12879); experiment: NR2A antagonist activity, Fluo-4 calcium influx in HEK293 cells; format: cell-based; settings: Table 2.1, glutamate 100 μM, glycine 50 μM
human NR1/NR2A, sequence (Q12879 23-1464, other chains not shown): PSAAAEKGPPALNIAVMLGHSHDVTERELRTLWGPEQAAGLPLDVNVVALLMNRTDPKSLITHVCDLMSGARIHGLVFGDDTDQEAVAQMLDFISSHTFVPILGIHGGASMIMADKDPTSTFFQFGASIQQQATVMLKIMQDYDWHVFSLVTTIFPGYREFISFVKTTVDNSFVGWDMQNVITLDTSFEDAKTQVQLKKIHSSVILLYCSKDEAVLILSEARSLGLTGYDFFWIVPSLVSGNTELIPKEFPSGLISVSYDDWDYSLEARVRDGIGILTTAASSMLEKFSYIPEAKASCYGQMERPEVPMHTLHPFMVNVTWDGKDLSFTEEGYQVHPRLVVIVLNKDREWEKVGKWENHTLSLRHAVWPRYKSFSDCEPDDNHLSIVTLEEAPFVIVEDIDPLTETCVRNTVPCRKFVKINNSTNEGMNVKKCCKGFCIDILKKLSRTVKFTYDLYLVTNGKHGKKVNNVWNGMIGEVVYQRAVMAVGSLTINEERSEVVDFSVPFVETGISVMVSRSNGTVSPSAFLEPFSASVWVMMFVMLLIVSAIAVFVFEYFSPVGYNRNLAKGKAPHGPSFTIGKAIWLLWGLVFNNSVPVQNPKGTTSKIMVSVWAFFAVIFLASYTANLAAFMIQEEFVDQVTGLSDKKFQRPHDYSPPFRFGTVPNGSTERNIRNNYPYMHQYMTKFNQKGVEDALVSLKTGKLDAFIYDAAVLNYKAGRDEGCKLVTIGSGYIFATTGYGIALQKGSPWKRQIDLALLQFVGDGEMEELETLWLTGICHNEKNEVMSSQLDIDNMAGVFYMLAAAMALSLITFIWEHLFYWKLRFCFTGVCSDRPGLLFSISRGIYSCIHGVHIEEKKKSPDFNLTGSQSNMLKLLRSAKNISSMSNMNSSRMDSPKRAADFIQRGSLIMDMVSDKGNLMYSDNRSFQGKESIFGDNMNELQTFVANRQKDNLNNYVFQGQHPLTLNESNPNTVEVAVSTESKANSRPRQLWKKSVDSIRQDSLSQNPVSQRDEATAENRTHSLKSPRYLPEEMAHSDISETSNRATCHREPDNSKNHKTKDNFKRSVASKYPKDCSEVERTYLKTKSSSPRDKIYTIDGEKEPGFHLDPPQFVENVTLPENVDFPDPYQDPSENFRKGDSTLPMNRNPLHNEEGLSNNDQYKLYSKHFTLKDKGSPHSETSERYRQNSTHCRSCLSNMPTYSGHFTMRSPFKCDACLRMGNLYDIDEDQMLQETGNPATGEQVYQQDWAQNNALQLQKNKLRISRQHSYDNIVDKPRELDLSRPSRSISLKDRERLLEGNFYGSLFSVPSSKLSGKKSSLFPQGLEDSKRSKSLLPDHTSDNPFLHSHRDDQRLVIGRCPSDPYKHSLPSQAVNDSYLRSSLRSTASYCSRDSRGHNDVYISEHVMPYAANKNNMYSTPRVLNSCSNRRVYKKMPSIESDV
Procedure: as §1, §2

CYP2D6 = CYP2D6 (Homo sapiens (Human), UniProt P10635); experiment: CYP P450 enzyme inhibition, pooled human liver microsome; format: in vitro ADME; settings: 10 μM, pooled HLM, dextromethorphan 5 μM
CYP2D6, sequence (P10635 whole entry): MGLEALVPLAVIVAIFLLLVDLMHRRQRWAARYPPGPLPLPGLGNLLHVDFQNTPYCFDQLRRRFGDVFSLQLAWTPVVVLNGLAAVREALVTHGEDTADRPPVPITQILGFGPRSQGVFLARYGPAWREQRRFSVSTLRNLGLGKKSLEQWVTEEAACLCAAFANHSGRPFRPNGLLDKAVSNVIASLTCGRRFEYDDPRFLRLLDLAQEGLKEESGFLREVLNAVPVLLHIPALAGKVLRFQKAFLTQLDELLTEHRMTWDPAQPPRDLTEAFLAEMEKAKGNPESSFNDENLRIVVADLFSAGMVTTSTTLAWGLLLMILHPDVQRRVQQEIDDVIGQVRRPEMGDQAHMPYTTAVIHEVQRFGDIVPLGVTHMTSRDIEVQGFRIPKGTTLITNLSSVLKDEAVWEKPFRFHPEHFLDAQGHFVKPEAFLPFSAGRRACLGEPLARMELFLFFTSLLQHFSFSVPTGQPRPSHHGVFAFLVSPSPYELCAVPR
Procedure: Those CYP isoforms and their corresponding probe substrates are as follows: CYP1A2 (phenacetin, 30 μM), CYP2C9 (tolutamide, 100 μM), CYP2C19 (S-mephenytoin, 40 μM), CYP2D6 (dextromethorphan, 5 μM) and CYP3A4 (midazolam, 1 μM). All probe substrates were used at concentrations near or below their Kms. For experiment, a reaction mixture of test compound at 10 μM or in serial dilution, CYP probe substrate described above and 0.2 mg/mL pooled HLM in phosphate buffer, pH 7.4 in a final volume of 200 μL was pre-incubated at 37° C. for 10 minutes in triplicate. The reaction was initiated by addition of NADPH at final concentration of 1 mM. The reaction was terminated after 10 minutes (CYP1A2, CYP2D6 and CYP3A4) or 30 minutes (CYP2C9 and CYP2C19) by addition of 100 μL ice-cold acetonitrile with internal standard (IS). The samples were then centrifuged at 13,000 rpm and the supernatants were injected to LC-MS/MS (Agilent Technologies) to quantify the concentration of the specific metabolites of the probe substrates formed by individual CYP450 isoforms. The inhibition ratio is calculated as: (Mt−M0)/Mwater×100% in which Mt and M0 represent the concentrations of the specific probe substrate metabolite, which was formed by individual CYP450 isoform, at the beginning and end of the reaction in the presence of test compound; while Mwater represents the concentration of the specific metabolite at the end of the reaction in the absence of test compound. Test compound concentration-dependent response data experiments performed in triplicate.

[1] = system: pentylenetetrazole (PTZ) induced convulsions; experiment: Pentylenetetrazole (PTZ) Seizure Test; format: in vivo; settings: 10 mg/kg p.o., mesylate salt
Procedure: Rats, placed in individual macrolon cages (25×19×13 cm), were injected with pentylenetetrazole (PTZ) (100 mg/kg s.c.). The occurrence and latency of clonic and tonic convulsions and death were noted over a 30 minute period. 15 rats were studied per group. The test was performed blind. […]
Compounds were evaluated typically using 0.5% dimethylsulfoxide, 4% hydroxypropyl-b-cyclodextrin water as a vehicle at 1 or more doses (e.g., 1, 3 and 10 mg/kg), administered p.o. 30 minutes before PTZ, and compared with a vehicle control group. Diazepam (16 mg/kg p.o.), administered 60 minutes before PTZ, was used as reference substance. The experiment was performed over 2 separate sub-experiments with N=7 to 8 animals per group and per sub-experiment. Quantitative data (latencies) with the test substance was analyzed by comparing treated groups with vehicle control using Kruskal-Wallis test followed by Mann-Whitney U test. Quantitative data with the reference substance was analyzed using Mann-Whitney U test. Quantal data (frequencies) was analyzed by comparing treated groups with vehicle control using Fisher's Exact Probability tests (*=p<0.05; **=p<0.01; ***=p<0.001).

[2] = system: haloperidol-induced catalepsy; experiment: Haloperidol-Induced Catalepsy (HIC) Model; format: in vivo; settings: rats
From the text: The Haloperidol-induced Catalepsy (HIC) model detects antipsychotic activity and the action of NR2B selective antagonists (Steece-Collier et al. Exp. Neurol. 163: 239, 2000) and was based on methods described by Chermat and Simon (J. Pharmacol., 6, 493-496, 1975). The capacity to induce catalepsy serves as an index of the liability of a test substance to induce extrapyramidal side-effects, in particular Parkinsonism. Antagonism of antipsychotic-induced catalepsy can thus serve to detect anti-Parkinson potential.
Rats were injected with haloperidol (1 mg/kg i.p.) and were examined for catalepsy at 30 minute intervals up to 360 minutes. Presence (+) or absence (−) of catalepsy was assessed by three procedures: 1) imposed crossing of the ipsilateral fore- and hind-limbs; 2) placing the animal in the Buddha position; 3) the tilting board, an automatic device that, 5 seconds after positioning the rat, displaces the rat from a horizontal to vertical position and back while it clings to a wire grid with its front paws. Akinesia and catalepsy were assessed depending on whether or not the animal moves before (akinesia) or during operation of the board (catalepsy).
The 4 scores were cumulated over time to give a global catalepsy score per animal. Six rats were studied per group. The test was performed blind (test substances versus vehicle). Test substances were evaluated at 1 or more doses, administered typically using 0.5% dimethylsulfoxide, 4% hydroxypropyl-b-cyclodextrin water as a vehicle p.o. 15 minutes before haloperidol (i.e. 45 minutes before the first measurement), and compared with a vehicle control group.
Amphetamine (8 mg/kg p.o.), administered 60 minutes before the test (i.e. 90 minutes before the first measurement), was used as reference substance. Data with the test substances were analyzed by comparing treated groups with vehicle control using Kruskal-Wallis Test followed by Mann-Whitney U tests at each time and for cumulated score. Data with the reference substance were analyzed using Mann-Whitney U tests.

[3] = system: electroconvulsive threshold (tonic convulsions); experiment: Electroconvulsive Threshold Test (ECT); format: in vivo, rats; settings: rats, 3 and 10 mpk p.o., mesylate salt
Procedure: Test compound E1-8.2 was administered as the free base.
Rats were administered ECS (rectangular current: 0.6 ms pulse width, 1.5 s duration, 200 Hz) via earclip electrodes connected to a constant current shock generator (Ugo Basile: type 7801). Test compounds were administered by oral gavage (p.o.) 1 hour before the test at a dose volume of 5 mL/kg.
Treatment groups of 20 rats were exposed to ECS as follows: The first animal was exposed to 30 mA of ECS. […] (increases of 5 mA) until the first tonic convulsion was observed. Once the first tonic convulsion was observed, the intensity of ECS was decreased by 2 mA for the next animal and then decreased or increased by 2 mA from animal to animal depending on whether the previous animal convulsed or not. If the first animal did convulse (tonic convulsions) within 5 seconds, animal no2 is exposed to 25 mA, etc. . . . (decreases of 5 mA) until the absence of tonic convulsions was observed. At this point, the intensity of ECS was increased by 2 mA for the next animal and then decreased or increased by 2 mA from animal to animal depending on whether the previous animal convulsed or not. The minimum current intensity applied is 5 mA and the maximum 95 mA. The first 5 animals serve to approach threshold current and were not included in the analysis. The results are presented as the mean current intensity administered to the final 15 animals of a group. The test was performed blind. A positive percent change indicates an anticonvulsant effect. A negative percent change indicates a proconvulsant effect. The test substance was evaluated at 4 doses, typically using 0.5% dimethylsulfoxide, 4% hydroxypropyl-b-cyclodextrin water as a vehicle, and administered p.o. 60 minutes before ECS, and compared with a vehicle control group. Diazepam (16 mg/kg p.o.), administered under the same experimental conditions, was used as reference substance. The experiment included 6 groups. Data with the test substance was analyzed by comparing treated groups with vehicle control using one-way ANOVA followed by Dunnett's t tests.

[4] = Table 2.1, HEK293 human NR1/NR2B, glutamate 100 μM, glycine 50 μM

Compound	IC50 (human NR1/NR2B; [4])	IC50 (human NR1/NR2B; Table 2.2)	IC50 (human NR1/NR2B; Table 2.3)	displacement of [3H] (E)-N1-(2-methoxybenzyl)-cinnamidine at the NR2B receptor high affinity site (NR2B receptor)	Ki (NR2B receptor)	partial effect on [3H] MK-801 binding (NMDA receptor)	hERG @ 10 μM (%) (hERG channel)	IC50 (human NR1/NR2A)	CYP2D6 @ 10 μM (%) (CYP2D6)	number of rats showing tonic convulsions, change vs vehicle controls [1]	latency to clonic convulsions, change vs vehicle controls ([1]; rats)	latency to death, change vs vehicle controls ([1]; rats)	latency to tonic convulsions, change vs vehicle controls ([1]; rats)	number of deaths, change vs vehicle controls ([1]; rats)	cumulated score of catalepsy over 360 mins ([2]; 3 mg/kg p.o.)	cumulated score of catalepsy over 360 mins ([2]; 10 mg/kg p.o.)	electroconvulsive threshold, pro-/anticonvulsant activity [3]
O=C(OCc1ccc(Cl)cc1)N1CC[C@H](CNc2nccn3cnnc23)C(F)(F)C1 [Compound E1-1.3, R-4-chlorobenzyl 4-(([1,2,4]triazolo[4,3-a]pyrazin-8-ylamino)methyl)-3,3-difluoropiperidine-1-carboxylate]	14.8 nM	14.8 nM	14.8 nM	97%	2.34 nM	41%	19%	> 10 µM	37%								
O=C(OCc1ccc(F)cc1)N1CC[C@H](CNc2nccn3cnnc23)C(F)(F)C1 [Compound E1-1.4, R-4-fluorobenzyl 4-(([1,2,4]triazolo[4,3-a]pyrazin-8-ylamino)methyl)-3,3-difluoropiperidine-1-carboxylate]	20.5 nM	20.5 nM	20.5 nM	98%	18.2 nM	32%	11%	> 10 µM	19%								
Cc1ccc(COC(=O)N2CC[C@H](CNc3cnccn3)C(F)(F)C2)cc1 [Compound E1-21.2, R-4-methylbenzyl 3,3-difluoro-4-((pyrazin-2-ylamino)methyl)piperidine-1-carboxylate]	14.4 nM	14.4 nM	14.4 nM	98%		49%	27%	> 10 µM	97%								
Cc1ccc(COC(=O)N2CC[C@H](CNc3cnc(C)cn3)C(F)(F)C2)cc1 [Compound E1-21.26, R-4-methylbenzyl 3,3-difluoro-4-((5-methylpyrazin-2-ylamino)-methyl)piperidine-1-carboxylate]	38.7 nM	38.7 nM	38.7 nM	99%		41%	39%	> 10 µM	32%	−82%	+45%	+31%	+40%	−82%	11.7	1.0	anticonvulsant activity
